Assays:
DU145 = assay: cells; set-up: species or system human cancer cell lines; details: Homo sapiens, DU-145, 48 h, read-out: DU145
MCF7 = assay: cells; set-up: species or system human cancer cell lines; details: Homo sapiens, MCF7, 48 h, read-out: MCF7
HepG2 = assay: cells; set-up: species or system human cancer cell lines; details: Homo sapiens, HepG2, 48 h, read-out: HepG2
SKOV3 = assay: cells; set-up: species or system human cancer cell lines; details: Homo sapiens, SK-OV-3, 48 h, read-out: SKOV3
MDA MB-231 = assay: cells; set-up: species or system human cancer cell lines; details: Homo sapiens, MDA-MB-231, 48 h, read-out: MDA MB-231
in vitro = details: human, mrc5 cells
porcine brain tubulin = porcine brain tubulin (Sus scrofa, UniProt P02550+P02554); assay: fluorescence-based tubulin polymerization assay; format: biochemical; details: read-out: % inhibition at 3 μM
Chain of porcine brain tubulin (P02550 whole entry): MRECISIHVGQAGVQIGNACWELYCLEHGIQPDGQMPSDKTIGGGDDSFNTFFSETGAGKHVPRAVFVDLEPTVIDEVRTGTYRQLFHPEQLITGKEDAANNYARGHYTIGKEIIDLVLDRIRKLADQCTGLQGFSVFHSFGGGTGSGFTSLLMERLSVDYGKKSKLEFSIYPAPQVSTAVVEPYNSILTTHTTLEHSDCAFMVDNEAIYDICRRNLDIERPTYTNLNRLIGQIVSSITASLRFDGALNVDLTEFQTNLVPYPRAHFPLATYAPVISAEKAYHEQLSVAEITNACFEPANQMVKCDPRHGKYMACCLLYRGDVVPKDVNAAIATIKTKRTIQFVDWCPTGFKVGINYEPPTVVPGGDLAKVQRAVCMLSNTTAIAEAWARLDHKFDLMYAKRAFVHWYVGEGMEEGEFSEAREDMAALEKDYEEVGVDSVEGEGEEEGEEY
Chain of porcine brain tubulin (P02554 whole entry): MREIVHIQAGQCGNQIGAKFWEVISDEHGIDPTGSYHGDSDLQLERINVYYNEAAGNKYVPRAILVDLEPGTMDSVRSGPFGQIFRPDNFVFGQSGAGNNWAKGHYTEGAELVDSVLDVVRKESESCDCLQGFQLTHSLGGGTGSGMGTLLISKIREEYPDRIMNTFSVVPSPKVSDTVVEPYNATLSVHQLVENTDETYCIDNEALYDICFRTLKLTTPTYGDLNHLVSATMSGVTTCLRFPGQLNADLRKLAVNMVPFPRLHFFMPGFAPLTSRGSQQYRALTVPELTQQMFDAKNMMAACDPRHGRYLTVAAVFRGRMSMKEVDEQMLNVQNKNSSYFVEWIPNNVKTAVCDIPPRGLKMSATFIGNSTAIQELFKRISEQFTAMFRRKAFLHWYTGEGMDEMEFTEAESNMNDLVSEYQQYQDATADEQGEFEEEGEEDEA

| SMILES | GI50 (DU145) [µM] | GI50 (MCF7) [µM] | GI50 (HepG2) [µM] | GI50 (SKOV3) [µM] | GI50 (MDA MB-231) [µM] | CC50 at 48 h (in vitro) [µM] | inhibition at 3 µM (porcine brain tubulin) [%] |
| --- | --- | --- | --- | --- | --- | --- | --- |
| COc1cccc2c1C(=O)c1c(O)c3c(c(O)c1C2=O)C[C@@](O)(C(=O)CO)C[C@@H]3O[C@H]1C[C@H](N)[C@H](O)[C@H](C)O1 [Doxorubicin] | < 0.1 | < 0.1 | < 0.1 | 1.17 ± 0.52 | < 0.1 |  |  |
| COC(=O)Nc1nc2ccc(C(=O)c3cccs3)cc2[nH]1 [nocodazole] | 0.17 ± 0.07 | < 0.1 | 7.06 ± 0.54 | < 0.1 | 2.8 ± 0.51 | 129 ± 1.48 |  |
| Clc1ccc2nc(Cl)nc(-c3ccccc3Cl)c2c1 [ATS-1] | > 10 | > 10 | > 10 | 0.15 ± 0.05 | > 10 | 136 ± 1.63 |  |
| Clc1ccc2nc(Nc3c(Cl)cccc3Cl)nc(-c3ccccc3)c2c1 [ATS-7] | > 10 | 0.6 ± 0.07 | > 10 | 10.3 ± 0.62 | > 10 | 141 ± 1.41 | 59 |
| Clc1ccc2nc(NN=Cc3c(Cl)cccc3Cl)nc(-c3ccccc3)c2c1 [ATS-3] | 2.27 ± 0.37 | > 10 | > 10 | 0.47 ± 0.06 | 8.84 ± 0.12 | 159 ± 1.06 |  |
| O=[N+]([O-])c1ccc(C=NNc2nc(-c3ccccc3)c3cc(Cl)ccc3n2)o1 [ATS-4] | 0.81 ± 0.07 | > 10 | 1.35 ± 0.45 | 2.75 ± 0.35 | > 10 | 162 ± 1.82 |  |

Source: doi:10.1101/108654v1 (biorxiv, 2017)
